Results as given in patent US7459481B2, “Stimulation of CPT-1 as a means to reduce weight” (The Johns Hopkins University School of Medicine Licensing …, priority 2002, dated 2008).
Where “and” joins values, the source holds several entries; their conditions need not be identical. Identical values can stand only once.

What was measured:
CPT-1 = molecular target: T1, CPT-1 (Homo sapiens, UniProt P50416); assay: CPT-1 activity assay in MCF-7 cells; format: cell-based; conditions: for CPT-1 Stimulation (% Control): cells preincubated 2 hours; for CPT-1 activity, % of control: FIG. 4
T1 construct: endogenous in cells; host or cells: MCF-7 human breast cancer cells
T1 sequence (P50416 1-773): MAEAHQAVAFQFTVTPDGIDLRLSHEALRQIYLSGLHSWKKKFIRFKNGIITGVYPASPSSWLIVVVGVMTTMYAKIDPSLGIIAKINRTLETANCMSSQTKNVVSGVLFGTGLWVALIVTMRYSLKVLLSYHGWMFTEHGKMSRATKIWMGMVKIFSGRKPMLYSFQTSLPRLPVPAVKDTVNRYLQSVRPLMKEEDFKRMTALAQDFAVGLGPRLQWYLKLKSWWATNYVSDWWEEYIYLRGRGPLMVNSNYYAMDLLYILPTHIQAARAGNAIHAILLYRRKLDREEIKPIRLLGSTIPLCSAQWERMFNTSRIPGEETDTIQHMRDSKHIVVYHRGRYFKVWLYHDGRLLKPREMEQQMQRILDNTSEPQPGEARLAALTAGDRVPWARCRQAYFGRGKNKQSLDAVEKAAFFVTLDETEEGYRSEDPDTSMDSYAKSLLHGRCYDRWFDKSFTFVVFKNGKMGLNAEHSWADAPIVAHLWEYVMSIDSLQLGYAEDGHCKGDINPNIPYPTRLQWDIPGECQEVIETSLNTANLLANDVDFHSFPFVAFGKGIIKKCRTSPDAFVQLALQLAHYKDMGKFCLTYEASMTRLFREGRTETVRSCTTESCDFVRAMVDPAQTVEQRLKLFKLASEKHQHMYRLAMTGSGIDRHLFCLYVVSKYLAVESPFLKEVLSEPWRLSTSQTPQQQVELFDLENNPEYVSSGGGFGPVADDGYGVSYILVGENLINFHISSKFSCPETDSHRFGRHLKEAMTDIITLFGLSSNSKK
Description: CPT-1 activity was assayed in MCF-7 cells by the following published procedure: MCF-7 cells were plated in DMEM with 10% fetal bovine serum at 10^6 cells in 24-well plates in triplicate. Following overnight incubation at 37° C., the medium was removed and replaced with 700 μl of assay medium consisting of: 50 mM imidazole, 70 mM KCl, 80 mM sucrose, 1 mM EGTA, 2 mM MgCl2, 1 mM DTT, 1 mM KCN, 1 mM ATP, 0.1% fatty acid free bovine serum albumin, 70 μM palmitoyl-CoA, 0.25 μCi [methyl-^14C]L-carnitine, 40 μg digitonin with or without 20 μM malonyl-CoA. After incubation for 6 minutes at 37° C., the reaction was stopped by the addition of 500 μl of ice-cold 4 M perchloric acid. Cells were then harvested and centrifuged at 13,000×g for 5 min. The pellet was washed with 500 μl ice cold 2 mM perchloric acid and centrifuged again. The resulting pellet was resuspended in 800 μl dH2O and extracted with 150 μl of butanol. The butanol phase was counted by liquid scintillation and represents the acylcarnitine derivative.
MCF-7 cells were treated with C75 at 10 or 20 μg/mL for 1 hr before CPT-1 activity was assayed. The assay was performed with the C75 and malonyl-CoA concentrations indicated (“M” indicates malonyl-CoA at 20 uM). Malonyl-CoA treatment alone caused a 46% reduction in CPT-1 activity similar to the previous experiment (see FIG. 2; p=0.02, two-tailed t-test, Prism 3.0). The level of malonyl-CoA inhibition of the CPT-1 activity is consistent with the activity of the liver isoform of CPT-1 in MCF-7 cells. The Ki of malonyl-CoA for the liver isoform of CPT-1 is ˜7 μM while the Ki for the muscle isoform of CPT-1 is 0.07 μM. Thus, MCF-7 cells express predominantly the liver isoform of CPT-1 (consistent with the immunoblot analysis).
(§1) FAS activity was measured by monitoring the malonyl-CoA dependent oxidation of NADPH spectrophotometrically at OD340 in 96-well plates, as described in International Patent Publication WO 2004/005277. The IC50 for the compounds against FAS was determined by plotting the change in OD340 against time for each inhibitor concentration tested and determining the rate of change by linear regression. The concentration of a particular compound yielding 50% inhibition of the rate for FAS in the absence of the compound is the IC50. Stimulation of CPT-1 activity was measured as described in Example 2, except the cells were preincubated with the compound for 2 hours at the concentrations indicated in the table. Stimulation of Fatty acid oxidation was determined as described in Example 1 for cells preincubated with the compounds at the concentrations indicated in the table.

FAS = FAS (Homo sapiens, UniProt P49327); assay: FAS activity, malonyl-CoA dependent oxidation of NADPH at OD340; format: biochemical; conditions: read-out: FAS Inhibition (IC50) (converted)
Description: as §1

MCF-7 cells [1] = assay: Fatty acid oxidation ([1-14C]palmitate to 14CO2) in MCF-7 cells; format: cell-based, human
Description: Human breast cancer cell line MCF-7 was obtained from the American Type Culture Collection. 1×10^6 MCF-7 cells were plated in T-25 flasks in triplicate and incubated overnight at 37° C. Drugs were then added as indicated diluted from 5 mg/ml stock in DMSO. After 2 hours, medium with drugs was removed and cells were preincubated for 30 min. with 1.5 ml of the following buffer: 114 mM NaCl, 4.7 mM KCl, 1.2 mM KH2PO4, 1.2 mM MgSO4, glucose 11 mM. After preincubation, 200 μl of assay buffer was added containing: 114 mM NaCl, 4.7 mM KCl, 1.2 mM KH2PO4, 1.2 mM MgSO4, glucose 11 mM, 2.5 mM palmitate (containing with 10 μCi of [1-^14C]palmitate) bound to albumin, 0.8 mM L-carnitine, and cells were incubated at 37° C. for 2 h. Following the incubation, 400 μl of benzethonium hydrochloride was added to the center well to collect released ^14CO2. Immediately, the reaction was stopped by adding 500 μl of 7% perchloric acid to the cells. The flasks with wells were then incubated for 2 h at 37° C. after which the benzothonium hydrochloride was removed and counted for ^14C. Blanks were prepared by adding 500 μl of 7% perchloric acid to the cells prior to the incubation with the assay buffer for 2 h.
as §1

MCF-7 cells [2] = conditions: cited from earlier work
MCF-7 cells [3] = conditions: literature; cited from earlier work
muscle isoform of CPT-1 = molecular target: T2, muscle isoform of CPT-1 (Homo sapiens, UniProt Q92523); conditions: cited from earlier work
T2 sequence (Q92523 1-772): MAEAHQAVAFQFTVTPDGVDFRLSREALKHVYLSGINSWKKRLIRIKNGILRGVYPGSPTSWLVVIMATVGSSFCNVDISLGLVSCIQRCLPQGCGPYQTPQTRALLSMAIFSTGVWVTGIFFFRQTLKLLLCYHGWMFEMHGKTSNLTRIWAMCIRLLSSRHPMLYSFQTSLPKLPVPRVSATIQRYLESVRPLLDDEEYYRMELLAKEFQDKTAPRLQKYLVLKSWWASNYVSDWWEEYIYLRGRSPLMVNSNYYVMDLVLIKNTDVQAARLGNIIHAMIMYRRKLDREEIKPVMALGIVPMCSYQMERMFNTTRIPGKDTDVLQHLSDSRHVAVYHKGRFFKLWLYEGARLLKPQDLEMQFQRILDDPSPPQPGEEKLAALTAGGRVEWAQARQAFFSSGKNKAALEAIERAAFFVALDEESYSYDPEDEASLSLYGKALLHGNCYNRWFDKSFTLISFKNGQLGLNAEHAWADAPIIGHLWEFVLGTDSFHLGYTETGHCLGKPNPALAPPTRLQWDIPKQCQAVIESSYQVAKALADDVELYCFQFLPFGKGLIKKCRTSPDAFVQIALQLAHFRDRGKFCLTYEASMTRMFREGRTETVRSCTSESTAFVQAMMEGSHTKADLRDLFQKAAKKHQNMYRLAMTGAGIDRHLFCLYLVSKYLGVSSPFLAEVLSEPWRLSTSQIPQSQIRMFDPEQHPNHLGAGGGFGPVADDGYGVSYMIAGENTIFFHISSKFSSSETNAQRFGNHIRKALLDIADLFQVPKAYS

liver isoform of CPT-1 = molecular target: T3, liver isoform of CPT-1 (Homo sapiens, UniProt P50416); conditions: cited from earlier work
T3 sequence (P50416 1-773): T1 sequence (P50416 1-773)

[4] = MCF-7, 20 μg/ml 1 hr before assay

Chain of FAS (P49327 whole entry): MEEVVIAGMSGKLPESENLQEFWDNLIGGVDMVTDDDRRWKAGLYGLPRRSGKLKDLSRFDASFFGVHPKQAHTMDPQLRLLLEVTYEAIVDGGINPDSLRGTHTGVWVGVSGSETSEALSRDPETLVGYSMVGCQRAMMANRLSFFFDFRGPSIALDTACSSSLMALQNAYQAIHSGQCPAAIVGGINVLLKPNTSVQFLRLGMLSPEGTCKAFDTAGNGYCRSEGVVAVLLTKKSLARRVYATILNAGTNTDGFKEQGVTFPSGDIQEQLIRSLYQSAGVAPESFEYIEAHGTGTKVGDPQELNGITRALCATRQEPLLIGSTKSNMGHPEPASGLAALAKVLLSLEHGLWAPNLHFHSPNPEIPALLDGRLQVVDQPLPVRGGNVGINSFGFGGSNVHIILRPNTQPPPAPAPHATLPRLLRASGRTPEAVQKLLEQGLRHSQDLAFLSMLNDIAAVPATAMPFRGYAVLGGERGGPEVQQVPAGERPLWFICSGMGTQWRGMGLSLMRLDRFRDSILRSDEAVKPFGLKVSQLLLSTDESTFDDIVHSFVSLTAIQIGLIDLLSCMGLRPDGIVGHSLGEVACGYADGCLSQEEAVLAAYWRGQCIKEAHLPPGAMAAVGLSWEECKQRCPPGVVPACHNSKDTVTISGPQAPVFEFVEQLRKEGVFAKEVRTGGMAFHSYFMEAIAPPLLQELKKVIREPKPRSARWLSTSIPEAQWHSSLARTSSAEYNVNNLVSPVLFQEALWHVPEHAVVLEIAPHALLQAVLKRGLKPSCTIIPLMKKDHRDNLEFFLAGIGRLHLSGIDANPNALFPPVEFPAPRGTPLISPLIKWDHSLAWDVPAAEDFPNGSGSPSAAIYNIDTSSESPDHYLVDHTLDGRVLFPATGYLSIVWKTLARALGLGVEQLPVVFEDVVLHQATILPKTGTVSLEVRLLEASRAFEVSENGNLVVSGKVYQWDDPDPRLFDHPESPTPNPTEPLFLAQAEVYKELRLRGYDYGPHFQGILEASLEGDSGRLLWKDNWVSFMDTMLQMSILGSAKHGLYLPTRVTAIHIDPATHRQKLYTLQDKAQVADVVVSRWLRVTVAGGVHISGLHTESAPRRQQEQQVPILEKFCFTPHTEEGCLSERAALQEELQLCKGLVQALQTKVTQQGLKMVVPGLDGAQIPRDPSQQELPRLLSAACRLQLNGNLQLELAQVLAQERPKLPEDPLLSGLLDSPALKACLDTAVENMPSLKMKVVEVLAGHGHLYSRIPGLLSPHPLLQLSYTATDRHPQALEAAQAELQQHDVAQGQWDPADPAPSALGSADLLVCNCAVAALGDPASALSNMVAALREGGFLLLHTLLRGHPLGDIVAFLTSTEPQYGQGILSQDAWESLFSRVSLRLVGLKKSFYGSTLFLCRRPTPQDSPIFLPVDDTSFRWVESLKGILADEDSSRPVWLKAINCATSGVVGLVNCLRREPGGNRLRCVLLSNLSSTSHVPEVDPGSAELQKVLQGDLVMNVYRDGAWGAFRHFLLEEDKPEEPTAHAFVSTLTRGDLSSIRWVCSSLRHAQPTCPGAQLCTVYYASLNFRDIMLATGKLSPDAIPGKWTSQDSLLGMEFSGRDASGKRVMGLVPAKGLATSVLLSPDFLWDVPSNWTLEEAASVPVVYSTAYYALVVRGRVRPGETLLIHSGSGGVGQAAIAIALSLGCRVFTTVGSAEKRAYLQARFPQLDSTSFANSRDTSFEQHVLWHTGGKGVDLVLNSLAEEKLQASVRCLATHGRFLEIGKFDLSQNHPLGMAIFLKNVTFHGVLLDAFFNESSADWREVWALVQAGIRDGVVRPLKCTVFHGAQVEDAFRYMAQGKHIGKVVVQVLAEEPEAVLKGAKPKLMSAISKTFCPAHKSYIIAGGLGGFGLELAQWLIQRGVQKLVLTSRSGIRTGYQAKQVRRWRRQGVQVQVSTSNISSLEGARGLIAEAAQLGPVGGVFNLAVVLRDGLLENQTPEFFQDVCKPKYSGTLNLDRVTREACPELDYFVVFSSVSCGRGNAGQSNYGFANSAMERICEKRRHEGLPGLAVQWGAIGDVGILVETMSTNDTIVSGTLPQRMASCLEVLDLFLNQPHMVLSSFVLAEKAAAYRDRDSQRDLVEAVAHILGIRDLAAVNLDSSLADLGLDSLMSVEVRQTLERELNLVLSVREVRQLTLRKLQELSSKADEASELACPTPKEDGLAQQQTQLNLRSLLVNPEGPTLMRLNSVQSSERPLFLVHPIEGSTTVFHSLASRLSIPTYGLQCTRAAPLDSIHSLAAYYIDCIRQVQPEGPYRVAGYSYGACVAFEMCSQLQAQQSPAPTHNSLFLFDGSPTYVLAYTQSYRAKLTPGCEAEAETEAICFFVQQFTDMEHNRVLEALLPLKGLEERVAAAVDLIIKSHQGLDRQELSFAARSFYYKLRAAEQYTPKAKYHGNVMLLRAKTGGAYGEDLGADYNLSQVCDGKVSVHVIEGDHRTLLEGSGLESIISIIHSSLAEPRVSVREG

CCCCCCCC[C@]1(C)SC(=O)C=C1OC(=O)OCC (racemic)
CPT-1 Stimulation (% Control) (CPT-1; 20 μg/mL): 150 % Control
IC50 (FAS): 14.6 µM
Fatty Acid Oxidation (% Control) (MCF-7 cells [1]; 10 μg/mL): 140 % Control

C=CCNC(=O)[C@@H]1C(=C)C(=O)O[C@H]1CCCCCCCC (racemic)
CPT-1 Stimulation (% Control) (CPT-1; 10 μg/mL): 400 % Control
IC50 (FAS): 163 µM
Fatty Acid Oxidation (% Control) (MCF-7 cells [1]; 0.625 μg/mL): 400 % Control

C=C1C(=O)O[C@@H](CCCCCCCC)[C@@H]1C(=O)NCC(=O)O (racemic)
CPT-1 Stimulation (% Control) (CPT-1; 80 μg/mL): 500 % Control
IC50 (FAS): 167 µM
Fatty Acid Oxidation (% Control) (MCF-7 cells [1]; 40 μg/mL): 500 % Control

C=CCC1(CC=C)C(=O)S[C@@](C)(CCCCCCCC)C1=O (racemic)
CPT-1 Stimulation (% Control) (CPT-1; 20 μg/mL): 175 % Control
Fatty Acid Oxidation (% Control) (MCF-7 cells [1]; 10 μg/mL): 175 % Control

C/C=C/C/C=C/CCC(=O)[C@H]1O[C@H]1C(N)=O [Cerulenin, reference compound]
effect on malonyl-CoA amount (MCF-7 cells [2]): increases
effect on fatty acid oxidation (MCF-7 cells [3]): inhibition of fatty acid oxidation

C=C1C(=O)OC(CCCCCCCCCCCC)C1C(=O)O (centres unmarked) [Compound C12]
CPT-1 activity, % of control (CPT-1; [4]): 186 % of control

C=C1C(=O)OC(CCCCCCCCCCCCCCCC)C1C(=O)O (centres unmarked) [Compound C16]
CPT-1 activity, % of control (CPT-1; [4]): 138 % of control

CCOC(=O)[C@@]1(CCCCCCOc2ccc(Cl)cc2)CO1 [Etomoxir, reference compound]
fatty acid oxidation, % of control (MCF-7 cells [1]; MCF-7, FIG. 1): 32 % of control

CC(C)(COP(=O)(O)OP(=O)(O)OC[C@H]1O[C@@H](n2cnc3c(N)ncnc32)[C@H](O)[C@@H]1OP(=O)(O)O)[C@@H](O)C(=O)NCCC(=O)NCCSC(=O)CC(=O)O [Malonyl-CoA, reference compound]
Ki (muscle isoform of CPT-1): 0.07 µM
CPT-1 activity, % of control (CPT-1; MCF-7, 20 μM in reaction buffer): 64 % of control
reduction (inhibition) of CPT-1 activity (CPT-1; malonyl-CoA alone at 20 μM in the assay, MCF-7): 46% and ~70%
Ki (liver isoform of CPT-1): ~7 µM
